Blank lines part the entries; values can stand above or below the molecule they belong to.
Columns and labels:
human CYP11B1 [1] = molecular target: T1, human CYP11B1 (Homo sapiens, UniProt P15538); type: biochemical; conditions: 1:1 condition to 1:40 excess adrenodoxin
T1 sequence (P15538 25-503): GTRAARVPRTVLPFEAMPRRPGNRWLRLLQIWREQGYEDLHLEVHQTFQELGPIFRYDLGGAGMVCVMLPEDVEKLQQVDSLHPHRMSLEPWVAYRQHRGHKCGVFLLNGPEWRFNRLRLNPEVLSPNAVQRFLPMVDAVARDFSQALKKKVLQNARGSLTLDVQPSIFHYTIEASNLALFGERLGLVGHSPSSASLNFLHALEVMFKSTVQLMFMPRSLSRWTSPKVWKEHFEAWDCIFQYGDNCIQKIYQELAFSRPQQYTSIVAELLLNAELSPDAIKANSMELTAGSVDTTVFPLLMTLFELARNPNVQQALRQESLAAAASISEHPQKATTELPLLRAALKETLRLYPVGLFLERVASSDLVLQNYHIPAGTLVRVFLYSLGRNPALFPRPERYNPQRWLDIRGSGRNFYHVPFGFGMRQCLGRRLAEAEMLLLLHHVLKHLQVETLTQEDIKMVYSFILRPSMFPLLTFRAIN

human CYP11B1 [2] = molecular target: T1, human CYP11B1; assay: Spectral ligand binding titration; conditions: for Kd: dissociation constant Kd, 1 μM CYP11B1; for Amax: 0.2 μM CYP11B1, 5 cm cuvettes
[3] = molecular target: T2, adrenodoxin-CYP11B1 fusion enzyme (Homo sapiens, UniProt P10109+P15538); assay: Spectral ligand binding titration of the adrenodoxin-CYP11B1 fusion enzyme
T2 sequence (P10109+P15538 with tags, fused parts or gaps): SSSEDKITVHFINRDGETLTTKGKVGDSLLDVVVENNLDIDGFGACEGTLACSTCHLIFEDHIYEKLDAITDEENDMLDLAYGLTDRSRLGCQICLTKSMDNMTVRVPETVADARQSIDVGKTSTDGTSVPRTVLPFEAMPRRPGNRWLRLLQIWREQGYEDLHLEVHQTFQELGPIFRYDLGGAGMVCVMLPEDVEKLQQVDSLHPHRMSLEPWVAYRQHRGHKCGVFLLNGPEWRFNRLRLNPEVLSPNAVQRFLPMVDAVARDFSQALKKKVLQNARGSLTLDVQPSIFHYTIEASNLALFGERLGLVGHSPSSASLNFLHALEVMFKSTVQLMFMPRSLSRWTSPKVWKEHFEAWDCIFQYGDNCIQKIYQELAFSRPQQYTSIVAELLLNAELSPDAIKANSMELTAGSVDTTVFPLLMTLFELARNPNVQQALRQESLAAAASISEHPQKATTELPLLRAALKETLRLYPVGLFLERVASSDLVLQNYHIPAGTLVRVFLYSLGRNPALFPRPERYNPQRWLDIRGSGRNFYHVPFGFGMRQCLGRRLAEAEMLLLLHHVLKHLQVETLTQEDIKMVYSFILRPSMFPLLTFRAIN

CYP11B2 [4] = conditions: increasing adrenodoxin up to 40-fold; ref [8]; cited from earlier work
CYP11B2 [5] = assay: CYP11B2 substrate binding with varying adrenodoxin; parameters: species or system human; conditions: over 40-fold range of excess adrenodoxin

fold increase in catalytic efficiency (kcat/Km) (human CYP11B1 [1]): greater than 11 fold
Kd (human CYP11B1 [2]; 10-fold excess adrenodoxin): 12.2 µM
Kd (human CYP11B1 [2]; 40-fold excess adrenodoxin): 7.3 µM
Kd (human CYP11B1 [2]; equimolar adrenodoxin (1 μM)): 20.8 µM
Kd (human CYP11B1 [2]; no adrenodoxin): 17 µM
fold increase of Amax/Kd (binding efficiency) ([3]; adrenodoxin fused): more than 11 fold
fold difference of Kd, fusion vs same 1:1 ratio of non-fused proteins ([3]; printed as higher): ~ 5 fold
SMILES: C[C@]12CCC(=O)C=C1CC[C@@H]1[C@@H]2CC[C@@]2(C)[C@H]1CC[C@]2(O)C(=O)CO [11-deoxycortisol]

SMILES: C[C@]12CC[C@H]3[C@@H](CCC4=CC(=O)CC[C@@]43C)[C@@H]1CC[C@@H]2C(=O)CO [11-deoxycorticosterone]
fold effect on Km for CYP11B2 (CYP11B2 [4]): 1.6 fold
fold increase of Amax/Kd for CYP11B2 (CYP11B2 [5]): more than 3 fold

Amax (human CYP11B1 [2]; 1:1 CYP11B1 to adrenodoxin): 0.015
Amax (human CYP11B1 [2]; CYP11B1 alone): 0.006
SMILES: N#Cc1ccc([C@H]2CCc3cncn32)c(F)c1 [LCI699, osilodrostat]

From PMC9907956 (Journal of inorganic biochemistry, 2022)
